According to patent US6512130B1, “Mifepristone analogue, process for the preparation thereof and use thereof” (Council of Scientific and Industrial Research, priority 2000, dated 2003):
Where “and” joins values, the source holds several entries; their conditions need not be identical. Equal entries are not always repeated.

Target: T1, rabbit uterine progesterone receptor (Oryctolagus cuniculus, UniProt P06186)
T1 construct: performed using rabbit uterine cytosol and 3H progesterone (radioligand); from tissue; host or cells: uterus of immature, estradiol-dipropionate-primed rabbits; 105000 x g cytosol treated with dextran-coated charcoal
T1 sequence (P06186 1-930): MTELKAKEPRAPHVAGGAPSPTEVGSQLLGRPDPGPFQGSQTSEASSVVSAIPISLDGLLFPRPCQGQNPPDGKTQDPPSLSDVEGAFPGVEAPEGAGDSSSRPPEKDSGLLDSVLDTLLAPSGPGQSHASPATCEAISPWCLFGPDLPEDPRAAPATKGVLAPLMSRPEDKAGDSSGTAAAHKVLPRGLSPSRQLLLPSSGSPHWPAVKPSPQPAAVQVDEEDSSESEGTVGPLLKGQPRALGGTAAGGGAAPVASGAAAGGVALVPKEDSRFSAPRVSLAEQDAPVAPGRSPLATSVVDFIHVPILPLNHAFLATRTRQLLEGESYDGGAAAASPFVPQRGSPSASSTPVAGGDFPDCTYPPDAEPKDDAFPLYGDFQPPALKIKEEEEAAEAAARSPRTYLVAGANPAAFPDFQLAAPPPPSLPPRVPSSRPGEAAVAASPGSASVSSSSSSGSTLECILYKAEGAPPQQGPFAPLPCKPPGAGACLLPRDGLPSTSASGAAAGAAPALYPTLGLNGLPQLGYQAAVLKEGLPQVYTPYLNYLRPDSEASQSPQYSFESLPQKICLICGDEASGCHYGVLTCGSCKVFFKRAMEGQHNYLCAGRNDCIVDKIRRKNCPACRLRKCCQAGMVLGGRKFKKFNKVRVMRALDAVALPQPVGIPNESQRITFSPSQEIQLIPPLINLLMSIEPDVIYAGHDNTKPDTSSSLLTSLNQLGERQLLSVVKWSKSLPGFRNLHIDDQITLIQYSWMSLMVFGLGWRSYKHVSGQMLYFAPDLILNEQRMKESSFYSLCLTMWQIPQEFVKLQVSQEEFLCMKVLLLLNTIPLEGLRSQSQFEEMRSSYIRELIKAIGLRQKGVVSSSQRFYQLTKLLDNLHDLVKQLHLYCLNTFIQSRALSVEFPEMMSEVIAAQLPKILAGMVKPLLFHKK
Test: Competitive binding assay for progesterone receptors using rabbit uterine cytosol and 3H-progesterone
Conditions: rabbit uterine cytosol, 3H-progesterone 8×10^−9 M, 1 μM unlabelled cortisol, 4° C. 20 hours; progesterone taken as 100
Method: Crude products 3, 4, and 5 may be purified by column chromatography using silica gel, basic alumina, acidic alumina or neutral alumina as adsorbants and ethyl acetate, ethyl acetate-benzene, or ethyl acetate-chloroform as solvent systems. […] The competitive binding assay for progesterone receptors (PR) was performed using rabbit uterine cytosol and 3H progesterone (radioligand) in the presence of unlabelled cortisol at 4° C. Competitor dilutions were prepared in DMF:Tris buffer pH 7.4 (1:1). […] The activity of progesterone is taken as 100.
Animals. Immature rabbits weighing about 1 kg were administered 100 μg estradioldipropionate intramuscularly for four days and were sacrificed on the fifth day. Uteri were removed, washed with ice cold saline and weighed. Uteri were homogenised in four volumes of 50 mM Tris buffer, pH 7.4 containing 1 mM EDTA, 12 mM monothioglycerol and 10% glycerol (v/v) at 2° C. using polytron PT-10 homoniser.
The homogenate was ultracentrifuged at 105000×g for 60 minutes at 4° C. The resultant supernatant (cytosol) was treated with equal volume of dextran coated charcoal (0.5% charcoal and 0.05% dextran in TEMG buffer) for 30 minutes with occasional stirring at 0° C. DCC treated cytosol was used for binding assay.
Prior to the assay, cytosol was Incubated with 1 μM unlabelled cortisol for 30 minutes at 0° C. Aliquots of the cytosol were incubated at 4° C. for 20 hours with a constant concentration of ^3H-progesterone (8×10^−9 M) in the absence or presence of increasing concentration (1 to 10000×10^−9 M) of either unlabelled progesteroine or test compounds. ^3H-progesterone bound was measured for each incubate by the technique of charcoal adsorption.
Calculation of relative binding affinity of test compounds was done by plotting the curves between the percentage of bound titrated progesterone as a function of the iogarithm of the unlabelled progesterone concentration and as a function of logarithm of the concentration of unlabelled test compounds (FIGS. 1 and 2). […]

SMILES	Relative binding affinity (%)
CC(C)C#C[C@]1(O)CCC2C3CCC4=CC(=O)CCC4=C3C(c3ccc(N(C)C)cc3)C[C@@]21C (stereo partly drawn) [Compound 1, 11β-[4-(N,N-dimethylamino)phenyl]-17β-hydroxy-17α-(3-methyl-1-butynyl)-estra-4,9-dien-3-one]	174.65%
CC#C[C@]1(O)CC[C@H]2[C@@H]3CCC4=CC(=O)CCC4=C3[C@@H](c3ccc(N(C)C)cc3)C[C@@]21C [Compound 6, Mifepristone]	103% and 103.44%
CC(=O)[C@H]1CC[C@H]2[C@@H]3CCC4=CC(=O)CC[C@]4(C)[C@H]3CC[C@]12C [Progesterone]	100%
